Reference: patent US20230085307A1, “PYRIDAZINONE COMPOUND AND HERBICIDE” (NISSAN CHEMICAL CORPORATION, priority 2019, published 2023)

Assays:
rice flat sedge = assay: Test Example 3: herbicidal effect by foliage application, Wagner pot (Table 18, symbol E); assay type: in vivo, rice flat sedge (Cyperus iria); settings: 320 g/ha
In short: (§1)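 Plants were sown in alluvial soil held under 0.1–0.5 cm standing water and grown 14 days in a greenhouse at 25–30 °C. An emulsifiable formulation, water-diluted to the set dose, was then sprayed onto the foliage, and effects were scored three weeks later using previously defined criteria.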

blackgrass [1] = assay: Test Example 4: herbicidal effect by soil treatment (Table 19, symbol J); assay type: in vivo, blackgrass (Alopecurus myosuroides); settings: amount of applied herbicide 320 g/ha
In short: (§2)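 Pre-emergence style soil spray: seeds under ~1.5 cm sterilized diluvial soil received a uniform coat of emulsion diluted to the predetermined herbicide amount. Greenhouse 25–30° C; readout at week three on previously defined criteria.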

Chinese sprangletop = assay: Test Example 3: herbicidal effect by foliage application, Wagner pot (Table 18, symbol D); assay type: in vivo, chinese sprangletop (Leptochloa chinensis); settings: 320 g/ha
In short: as §1

persian speedwell [2] = assay: Test Example 5: herbicidal effect by foliage application, plastic box (Table 20, symbol R); assay type: in vivo, Persian speedwell (Veronica persica); settings: amount of applied herbicide 320 g/ha; foliage application after 14-day growth; evaluated three weeks after application
In short: (§3)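 Plants were sown into sterilized diluvial soil under about 1.5 cm cover and kept in a greenhouse at 25° C. to 30° C. Fourteen days on, foliage received an even spray of the diluted emulsion. Herbicidal or crop effect was judged three weeks afterwards.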

velvetleaf [3] = assay: Test Example 5: herbicidal effect by foliage application, plastic box (Table 20, symbol M); assay type: in vivo, velvetleaf (Abutilon theophrasti); settings: amount of applied herbicide 320 g/ha; foliage application after 14-day growth; evaluated three weeks after application
In short: as §3

windgrass [4] = assay: Test Example 4: herbicidal effect by soil treatment (Table 19, symbol L); assay type: in vivo, windgrass (Apera spica-venti); settings: amount of applied herbicide 320 g/ha
In short: as §2

southern crabgrass [5] = assay: Test Example 4: herbicidal effect by soil treatment (Table 19, symbol F); assay type: in vivo, southern crabgrass (Digitaria ciliaris); settings: amount of applied herbicide 320 g/ha
In short: as §2

Italian ryegrass [6] = assay: Test Example 4: herbicidal effect by soil treatment (Table 19, symbol K); assay type: in vivo, Italian ryegrass (Lolium multiflorum); settings: amount of applied herbicide 320 g/ha
In short: as §2

chickweed [7] = assay: Test Example 5: herbicidal effect by foliage application, plastic box (Table 20, symbol P); assay type: in vivo, common chickweed (Stellaria media); settings: amount of applied herbicide 320 g/ha; foliage application after 14-day growth; evaluated three weeks after application
In short: as §3

persian speedwell [8] = assay: Test Example 4: herbicidal effect by soil treatment (Table 19, symbol R); assay type: in vivo, Persian speedwell (Veronica persica); settings: amount of applied herbicide 320 g/ha
In short: as §2

barnyard grass [9] = assay: Test Example 3: herbicidal effect by foliage application, Wagner pot (Table 18, symbol H); assay type: in vivo, barnyard grass (Echinochloa crus-galli); settings: 320 g/ha
In short: as §1

green foxtail [10] = assay: Test Example 4: herbicidal effect by soil treatment (Table 19, symbol G); assay type: in vivo, green foxtail (Setaria viridis); settings: amount of applied herbicide 320 g/ha
In short: as §2

redroot pigweed [11] = assay: Test Example 4: herbicidal effect by soil treatment (Table 19, symbol N); assay type: in vivo, redroot pigweed (Amaranthus retroflexus); settings: amount of applied herbicide 320 g/ha
In short: as §2

lambsquarters [12] = assay: Test Example 5: herbicidal effect by foliage application, plastic box (Table 20, symbol O); assay type: in vivo, lambsquarters (Chenopodium album); settings: amount of applied herbicide 320 g/ha; foliage application after 14-day growth; evaluated three weeks after application
In short: as §3

barnyard grass [13] = assay: Test Example 5: herbicidal effect by foliage application, plastic box (Table 20, symbol H); assay type: in vivo, barnyard grass (Echinochloa crus-galli); settings: amount of applied herbicide 320 g/ha; foliage application after 14-day growth; evaluated three weeks after application
In short: as §3

lambsquarters [14] = assay: Test Example 4: herbicidal effect by soil treatment (Table 19, symbol O); assay type: in vivo, lambsquarters (Chenopodium album); settings: amount of applied herbicide 320 g/ha
In short: as §2

barnyard grass [15] = assay: Test Example 4: herbicidal effect by soil treatment (Table 19, symbol H); assay type: in vivo, barnyard grass (Echinochloa crus-galli); settings: amount of applied herbicide 320 g/ha
In short: as §2

redroot pigweed [16] = assay: Test Example 5: herbicidal effect by foliage application, plastic box (Table 20, symbol N); assay type: in vivo, redroot pigweed (Amaranthus retroflexus); settings: amount of applied herbicide 320 g/ha; foliage application after 14-day growth; evaluated three weeks after application
In short: as §3

chickweed [17] = assay: Test Example 4: herbicidal effect by soil treatment (Table 19, symbol P); assay type: in vivo, common chickweed (Stellaria media); settings: amount of applied herbicide 320 g/ha
In short: as §2

green foxtail [18] = assay: Test Example 5: herbicidal effect by foliage application, plastic box (Table 20, symbol G); assay type: in vivo, green foxtail (Setaria viridis); settings: amount of applied herbicide 320 g/ha; foliage application after 14-day growth; evaluated three weeks after application
In short: as §3

velvetleaf [19] = assay: Test Example 4: herbicidal effect by soil treatment (Table 19, symbol M); assay type: in vivo, velvetleaf (Abutilon theophrasti); settings: amount of applied herbicide 320 g/ha
In short: as §2

wild oat [20] = assay: Test Example 4: herbicidal effect by soil treatment (Table 19, symbol I); assay type: in vivo, wild oat (Avena fatua); settings: amount of applied herbicide 320 g/ha
In short: as §2

wild oat [21] = assay: Test Example 5: herbicidal effect by foliage application, plastic box (Table 20, symbol I); assay type: in vivo, wild oat (Avena fatua); settings: amount of applied herbicide 320 g/ha; foliage application after 14-day growth; evaluated three weeks after application
In short: as §3

windgrass [22] = assay: Test Example 5: herbicidal effect by foliage application, plastic box (Table 20, symbol L); assay type: in vivo, windgrass (Apera spica-venti); settings: amount of applied herbicide 320 g/ha; foliage application after 14-day growth; evaluated three weeks after application
In short: as §3

southern crabgrass [23] = assay: Test Example 5: herbicidal effect by foliage application, plastic box (Table 20, symbol F); assay type: in vivo, southern crabgrass (Digitaria ciliaris); settings: amount of applied herbicide 320 g/ha; foliage application after 14-day growth; evaluated three weeks after application
In short: as §3

Italian ryegrass [24] = assay: Test Example 5: herbicidal effect by foliage application, plastic box (Table 20, symbol K); assay type: in vivo, Italian ryegrass (Lolium multiflorum); settings: amount of applied herbicide 320 g/ha; foliage application after 14-day growth; evaluated three weeks after application
In short: as §3

blackgrass [25] = assay: Test Example 5: herbicidal effect by foliage application, plastic box (Table 20, symbol J); assay type: in vivo, blackgrass (Alopecurus myosuroides); settings: amount of applied herbicide 320 g/ha; foliage application after 14-day growth; evaluated three weeks after application
In short: as §3

Structure (SMILES)	herbicidal effect on rice flat sedge (E) (rice flat sedge)	Herbicidal effect by soil treatment, J: blackgrass (blackgrass [1])	herbicidal effect on Chinese sprangletop (D) (Chinese sprangletop)	Herbicidal effect by foliage application, R: persian speedwell (persian speedwell [2])	Herbicidal effect by foliage application, M: velvetleaf (velvetleaf [3])	Herbicidal effect by soil treatment, L: windgrass (windgrass [4])	Herbicidal effect by soil treatment, F: southern crabgrass (southern crabgrass [5])	Herbicidal effect by soil treatment, K: Italian ryegrass (Italian ryegrass [6])	Herbicidal effect by foliage application, P: chickweed (chickweed [7])	Herbicidal effect by soil treatment, R: persian speedwell (persian speedwell [8])	herbicidal effect on barnyard grass (H) (barnyard grass [9])	Herbicidal effect by soil treatment, G: green foxtail (green foxtail [10])	Herbicidal effect by soil treatment, N: redroot pigweed (redroot pigweed [11])	Herbicidal effect by foliage application, O: lambsquarters (lambsquarters [12])	Herbicidal effect by foliage application, H: barnyard grass (barnyard grass [13])	Herbicidal effect by soil treatment, O: lambsquarters (lambsquarters [14])	Herbicidal effect by soil treatment, H: barnyard grass (barnyard grass [15])	Herbicidal effect by foliage application, N: redroot pigweed (redroot pigweed [16])	Herbicidal effect by soil treatment, P: chickweed (chickweed [17])	Herbicidal effect by foliage application, G: green foxtail (green foxtail [18])	further results
CSc1ccc(-c2sc3c(Cl)cccc3c2-c2c(O)c(C)nn(C)c2=O)cc1 [4-088]	5 (Herbicidal rate of 90% or more (almost completely withered))	0 (Herbicidal rate of 5% or less (almost no effect))	3 (Herbicidal rate of 40% or more and less than 70%)	5 (Herbicidal rate of 90% or more (almost completely withered))	5 (Herbicidal rate of 90% or more (almost completely withered))	0 (Herbicidal rate of 5% or less (almost no effect))	0 (Herbicidal rate of 5% or less (almost no effect))	3 (Herbicidal rate of 40% or more and less than 70%)	5 (Herbicidal rate of 90% or more (almost completely withered))	3 (Herbicidal rate of 40% or more and less than 70%)	5 (Herbicidal rate of 90% or more (almost completely withered))	0 (Herbicidal rate of 5% or less (almost no effect))	5 (Herbicidal rate of 90% or more (almost completely withered))	5 (Herbicidal rate of 90% or more (almost completely withered))	3 (Herbicidal rate of 40% or more and less than 70%)	4 (Herbicidal rate of 70% or more and less than 90%)	0 (Herbicidal rate of 5% or less (almost no effect))	5 (Herbicidal rate of 90% or more (almost completely withered))	0 (Herbicidal rate of 5% or less (almost no effect))	2 (Herbicidal rate of 20% or more and less than 40%)	Herbicidal effect by soil treatment, M: velvetleaf (velvetleaf [19]): 0 (Herbicidal rate of 5% or less (almost no effect)); Herbicidal effect by soil treatment, I: wild oat (wild oat [20]): 0 (Herbicidal rate of 5% or less (almost no effect)); Herbicidal effect by foliage application, I: wild oat (wild oat [21]): 4 (Herbicidal rate of 70% or more and less than 90%); Herbicidal effect by foliage application, L: windgrass (windgrass [22]): 5 (Herbicidal rate of 90% or more (almost completely withered)); Herbicidal effect by foliage application, F: southern crabgrass (southern crabgrass [23]): 0 (Herbicidal rate of 5% or less (almost no effect)); Herbicidal effect by foliage application, K: Italian ryegrass (Italian ryegrass [24]): 4 (Herbicidal rate of 70% or more and less than 90%); Herbicidal effect by foliage application, J: blackgrass (blackgrass [25]): 2 (Herbicidal rate of 20% or more and less than 40%)
CCSc1ccc(-c2sc3c(Cl)cccc3c2-c2c(O)c(C)nn(C)c2=O)cc1 [4-094]	4 (Herbicidal rate of 70% or more and less than 90%)	0 (Herbicidal rate of 5% or less (almost no effect))	4 (Herbicidal rate of 70% or more and less than 90%)	5 (Herbicidal rate of 90% or more (almost completely withered))	4 (Herbicidal rate of 70% or more and less than 90%)	0 (Herbicidal rate of 5% or less (almost no effect))	0 (Herbicidal rate of 5% or less (almost no effect))	2 (Herbicidal rate of 20% or more and less than 40%)	5 (Herbicidal rate of 90% or more (almost completely withered))	3 (Herbicidal rate of 40% or more and less than 70%)	5 (Herbicidal rate of 90% or more (almost completely withered))	0 (Herbicidal rate of 5% or less (almost no effect))	5 (Herbicidal rate of 90% or more (almost completely withered))	5 (Herbicidal rate of 90% or more (almost completely withered))	3 (Herbicidal rate of 40% or more and less than 70%)	3 (Herbicidal rate of 40% or more and less than 70%)	0 (Herbicidal rate of 5% or less (almost no effect))	5 (Herbicidal rate of 90% or more (almost completely withered))	0 (Herbicidal rate of 5% or less (almost no effect))	4 (Herbicidal rate of 70% or more and less than 90%)	Herbicidal effect by soil treatment, M: velvetleaf (velvetleaf [19]): 0 (Herbicidal rate of 5% or less (almost no effect)); Herbicidal effect by soil treatment, I: wild oat (wild oat [20]): 0 (Herbicidal rate of 5% or less (almost no effect)); Herbicidal effect by foliage application, I: wild oat (wild oat [21]): 4 (Herbicidal rate of 70% or more and less than 90%); Herbicidal effect by foliage application, L: windgrass (windgrass [22]): 5 (Herbicidal rate of 90% or more (almost completely withered)); Herbicidal effect by foliage application, F: southern crabgrass (southern crabgrass [23]): 0 (Herbicidal rate of 5% or less (almost no effect)); Herbicidal effect by foliage application, K: Italian ryegrass (Italian ryegrass [24]): 4 (Herbicidal rate of 70% or more and less than 90%); Herbicidal effect by foliage application, J: blackgrass (blackgrass [25]): 5 (Herbicidal rate of 90% or more (almost completely withered))
